Holding throughout (experiment): DTP human tumour cell line panel, 48 h
Assay [1] has as its system A498 renal.
In assay [2] the test system is HCT-15 colon.
Assay [3] deals with M14 melanoma.
Assay [4] deals with NCI-H522 lung.
The test system of assay [5] is SN12C renal.
Assay [6] deals with SNB-19 CNS.
The subject of assay [7] is SNB-75 CNS.
In assay [8] the test system is SR leukemia.
The test system of assay [9] is UACC-62 melanoma.
The test system of assay [10] is SK-MEL-2 melanoma.

In PubChem BioAssay (NCI) one finds TGI and GI50 data, which are given here for twelve compounds.

The structures appear in SMILES notation. Values joined by “and” are separate entries in the source; they are usually repeats but may differ in a detail not shown here. Identical values can stand only once.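 Each compound was tested at five concentrations against cells in 96-well plates for 48 hours. GI50 = concentration required for 50% inhibition of growth. TGI: concentration producing complete growth inhibition.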

Take `CSC(=S)c1ccc(C(=S)SC)cc1`: the TGI in assay [1], in [2], in assay [3], in assay [4], in assay [5] and in assay [6] was > 100 µM throughout. The total growth inhibition concentration (TGI) in [7], in [8] and in [9] was > 100 µM in each case.
On to `O=C(Nc1ccc(Cl)c(C(F)(F)F)c1)C(=O)C(C(=O)/C=C/c1ccccc1)C1OC(=O)c2ccccc21` (stereo unspecified), for which the TGI in assay [1], in assay [2], in assay [3], in [4], in [5] and in [6] was > 100 µM each time. In addition, the total growth inhibition concentration (TGI) in assay [7], in assay [8] and in assay [9] was > 100 µM throughout.
On to `CCNc1nnc(CSc2nc(-c3ccccc3)c(-c3ccccc3)[nH]2)s1`, for which the TGI in assay [2] amounted to 43.8 µM; in assay [3] it was 35.7 µM; in assay [4], 39.7 µM; in assay [10] it was 41.9 µM; in assay [5], 56.5 µM; in assay [6] it was 34 µM. The total growth inhibition concentration (TGI) was 82.6 µM in assay [7] and > 100 µM in assay [8].
For `CN(C)/[N+]([O-])=N/Oc1cc(Nc2cccc(C(=O)O)c2)c([N+](=O)[O-])cc1[N+](=O)[O-]`, the GI50 in assay [2] was > 100 µM; in [4], 69.3 µM; in assay [10], 36 µM; in [5], > 100 µM; in assay [6], 53.6 µM; in assay [7], > 100 µM. Also, the values for the GI50 in assay [8] and in assay [9] were 43.9 µM and 50.1 µM, respectively. In addition, the TGI in assay [2], in assay [4], in assay [10], in [5], in assay [6] and in assay [7] was > 100 µM each time. Further, the concentration for total growth inhibition (TGI) in assay [8] and in assay [9] was > 100 µM each time.
Turning to `CC[C@@H]1C[C@@H]2CN3CCc4c([nH]c5ccc(OC)cc45)C(COC(=O)c4ccc(OC)c(OC)c4)(C2)C13`, the TGI in [1] was 61.4 µM; in assay [2], > 100 µM; in assay [3], 41.8 µM; in [5] it was 39.3 µM; in assay [6] it was > 100 µM; in assay [7], > 100 µM. Also, the concentration for total growth inhibition (TGI) in assay [8] worked out at 78.4 µM; in assay [9], 28 µM.
For `Oc1ccc(C(c2ccccc2)(c2ccccc2)c2ccccc2)cc1`, the GI50 in [1] is 20.5 µM; in [2], 27.5 µM; in assay [3], 15.6 µM; in assay [4] it was 13.7 µM; in [10], 13.6 µM; in assay [5], 16.9 µM. Besides, the GI50 is 16.8 µM in [6], 25.4 µM in [8] and 16 µM in assay [9]. Also, the TGI in [1] is 35.1 µM; in [2] it was > 100 µM; in assay [3], 30.3 µM; in assay [4] it was 27.2 µM; in assay [10] it was 27 µM; in [5], 31.6 µM. In addition, the total growth inhibition concentration (TGI) turned out to be 32.2 µM in assay [6], 56.9 µM in assay [8] and 30.6 µM in [9].
`O=C1NC(=O)C(C(=O)C(=O)Nc2ccc(Br)cc2)C(=O)N1`: the total growth inhibition concentration (TGI) in assay [1], in assay [2], in assay [3], in [4], in assay [5] and in assay [6] was > 100 µM throughout. In addition, the TGI in assay [7], in assay [8] and in assay [9] was > 100 µM each time.
`CC(Cn1c2c3ccccc3ccc2c2oc(=O)c3ccccc3c21)N(C)C` (stereo unspecified): the concentration for total growth inhibition (TGI) in [2], in [3], in assay [4], in [10], in assay [6] and in [7] was > 100 µM throughout. Moreover, the TGI in assay [8] and in assay [9] was > 100 µM throughout.
On to `CCN1C(=O)C/C(=C\C(C)=O)Nc2ccccc21`, for which the GI50 in [1] and in assay [2] was > 100 µM each time. Besides, the TGI in assay [1], in [2], in assay [3], in [4], in [10] and in assay [6] was > 100 µM each time. In addition, the figures for the TGI in assay [7], in assay [8] and in assay [9] were > 67.1 µM, > 100 µM and > 100 µM, respectively.
On to `O=C(CCN1CCN(c2cccc(Cl)c2)CC1)N1CCc2c([nH]c3ccccc23)C1c1cccnc1` (stereo unspecified), for which the GI50 in assay [1] is 5.56 µM; in assay [2], 5.18 µM; in assay [3], 6.06 µM; in assay [4] it was 4.85 µM; in assay [10], 5.24 µM; in assay [5], 7.59 µM. In addition, the GI50 was 6.24 µM in [7] and 5.06 µM in assay [8]. The total growth inhibition concentration (TGI) is 20.2 µM in assay [1]; 18 µM in [2]; 9.22 µM and 19 µM in assay [3]; 19.1 µM in [4]; 18.2 µM in assay [10]; 21.1 µM in assay [5]. For the same compound, the TGI in [6] was 26.9 µM; in assay [7] it was 17.1 µM; in assay [8], 7.83 µM and 27 µM.
`CN/N=C(/Cc1occc(=O)c1O)C(=O)Nc1ccc(C)c(C)c1`: the TGI in [1], in assay [2], in assay [3], in assay [4], in [10] and in assay [5] was > 100 µM in each case. Also, the TGI in assay [6], in assay [8] and in assay [9] was > 100 µM each time.
`O=C1C2C(C(=O)N1O)N(Cc1ccccc1)C(=O)N2Cc1ccccc1` (stereo unspecified): the total growth inhibition concentration (TGI) in assay [1], in [2], in [3], in [4], in assay [5] and in [6] was > 100 µM each time. Further, the TGI in assay [7], in [8] and in assay [9] was > 100 µM each time.
